Results from patent publication US20260306502A1, “MITOCHONDRIAL UNCOUPLERS FOR TREATMENT OF METABOLIC DISEASES AND CANCER” (Mito Biopharma, LLC, priority 2022, published 2026).

tested on: C2C12 cells; assay: Mitochondrial uncoupling activity by oxygen consumption rate (OCR) assay, Seahorse, in presence of oligomycin; type: cell-based, mouse; settings: Mus musculus, C2C12; in the presence of oligomycin 2.5 μM; read-out: COCR-min: minimal concentration increasing OCR in the presence of oligomycin
Protocol: By definition, mitochondrial uncoupling is the decoupling of mitochondrial electron transport chain activity (mitochondrial oxidation) from ATP synthesis by mitochondrial ATP synthase. Technically, mitochondrial uncoupling activity is defined by the ability of a chemical compound to induce oxygen consumption of cells or isolated mitochondria in the presence of a mitochondrial ATP synthase inhibitor such as oligomycin. Accordingly, mitochondrial uncoupling activity was determined by oxygen consumption rate assay with a Seahorse XF96 or a Seahorse XF24 instrument following the vendor's instruction, using mouse myoblast C2C12 cells grown in a medium containing 10% fetal bovine serum. OCR was measured stepwise under the following conditions: first under normal growth conditions; then. OCR was measured after oligomycin was added to reach a final concentration of 2.5 μM); then OCR was measured after the compound was further added at varying concentrations. Finally, rotenone and antimycin A were added to confirm that the measurement was mitochondrial oxygen consumption (rotenone and […] mitochondrial electron transport chain inhibitors).
COCR-min the minimal concentration required for each compound to induce OCR in the presence of oligomycin, of disclosed compounds, was also determined by varying the final concentration of the compound added to the Seahorse OCR analysis experiment as described above (FIG. 2, varying testing compound concentration). Table 8 summarizes the mitochondrial uncoupling activity of disclosed compounds, as represented by COCR-min.

Row | SMILES | minimal effective concentration [µM]
1 | COCCOCc1cc(Cl)cc(C(=O)Nc2nc3ccc(F)cc3s2)c1O [Compound 8, 5-chloro-N-(6-fluorobenzo[d]thiazol-2-yl)-2-hydroxy-3-((2-methoxyethoxy)methyl)benzamide] | < 5
2 | O=C(Nc1nc2ccc(C(F)(F)F)cc2s1)c1cc(Cl)cc(CN2CCCC(F)C2)c1O (centres unmarked) [Example 58, 5-chloro-3-((3-fluoropiperidin-1-yl)methyl)-2-hydroxy-N-(6-(trifluoromethyl)benzo[d]thiazol-2-yl)benzamide] | < 5
3 | Cc1cc(Cl)cc(C(=O)Nc2nc3c(C4CCN(C)CC4)cc(C(F)(F)F)cc3s2)c1O [Example 94, 5-chloro-2-hydroxy-3-methyl-N-(4-(1-methylpiperidin-4-yl)-6-(trifluoromethyl)benzo[d]thiazol-2-yl)benzamide] | < 5
4 | C[C@@H]1CN(Cc2cc(Cl)cc(C(=O)Nc3nc4c(COCCN5CCN(C)CC5)cc(C(F)(F)F)cc4s3)c2O)C[C@H](C)O1 [Compound 76, 5-chloro-3-((cis-2,6-dimethylmorpholino)methyl)-2-hydroxy-N-(4-((2-(4-methylpiperazin-1-yl)ethoxy)methyl)-6-(trifluoromethyl)benzo[d]thiazol-2-yl)benzamide] | < 5
5 | O=C(Nc1ccc(C(F)(F)F)nc1)c1cc(Cl)cc(C2CCOC2)c1O (centres unmarked) [Example 98, 5-chloro-2-hydroxy-3-(tetrahydrofuran-3-yl)-N-(6-(trifluoromethyl)pyridin-3-yl)benzamide] | > 10
6 | COCCOCc1cc(C(F)(F)F)cc2sc(NC(=O)c3cc(Cl)cc(CN(CCOC)CCOC)c3O)nc12 [Compound 70, 3-((bis(2-methoxyethyl)amino)methyl)-5-chloro-2-hydroxy-N-(4-((2-methoxyethoxy)methyl)-6-(trifluoromethyl)benzo[d]thiazol-2-yl)benzamide] | < 5
7 | COCCOCc1cc(Cl)cc(C(=O)Nc2ccc(C(F)(F)F)nc2Cl)c1O [Compound 47, 5-chloro-N-(2-chloro-6-(trifluoromethyl)pyridin-3-yl)-2-hydroxy-3-((2-methoxyethoxy)methyl)benzamide] | < 5
8 | O=C(Nc1ncc(C(F)(F)F)s1)c1cc(Cl)cc(CN2CCOCC2)c1O [Compound 51, 5-chloro-2-hydroxy-3-(morpholinomethyl)-N-(5-(trifluoromethyl)thiazol-2-yl)benzamide] | < 5
9 | CC(=O)NC1CCN(Cc2cc(Cl)cc(C(=O)Nc3nc4ccc(C(F)(F)F)cc4s3)c2O)C1 (centres unmarked) [Compound 33, 3-((3-acetamidopyrrolidin-1-yl)methyl)-5-chloro-2-hydroxy-N-(6-(trifluoromethyl)benzo[d]thiazol-2-yl)benzamide] | > 10
10 | O=C(Nc1nc2ccc(C(F)(F)F)cc2s1)c1cc(Cl)cc(CN2CCC(F)(F)CC2)c1O [Example 62, 5-chloro-3-((4,4-difluoropiperidin-1-yl)methyl)-2-hydroxy-N-(6-(trifluoromethyl)benzo[d]thiazol-2-yl)benzamide] | < 5
11 | O=C(Nc1nc2ccc(C(F)(F)F)cc2s1)c1cc(Cl)cc(CN2CCC(O)C2)c1O (centres unmarked) [Compound 30, 5-chloro-2-hydroxy-3-((3-hydroxypyrrolidin-1-yl)methyl)-N-(6-(trifluoromethyl)benzo[d]thiazol-2-yl)benzamide] | > 10
12 | COc1cc(C(F)(F)F)cc2sc(NC(=O)c3cc(Cl)cc(C)c3O)nc12 [Compound 67, 5-chloro-2-hydroxy-N-(4-methoxy-6-(trifluoromethyl)benzo[d]thiazol-2-yl)-3-methylbenzamide] | < 5
13 | COCCNCc1cc(Cl)cc(C(=O)Nc2nc3ccc(C(F)(F)F)cc3s2)c1O [Compound 22, 5-chloro-2-hydroxy-3-(((2-methoxyethyl)amino)methyl)-N-(6-(trifluoromethyl)benzo[d]thiazol-2-yl)benzamide] | < 5
14 | COCCOCc1cc(Cl)cc(C(=O)Nc2cnc(C(F)(F)F)nc2)c1O [Compound 21, 5-chloro-2-hydroxy-3-((2-methoxyethoxy)methyl)-N-(2-(trifluoromethyl)pyrimidin-5-yl)benzamide] | > 10
15 | Cc1cc(Cl)cc(C(=O)Nc2nc3c(COCCNS(C)(=O)=O)cc(C(F)(F)F)cc3s2)c1O [Compound 91, 5-chloro-2-hydroxy-3-methyl-N-(4-((2-(methylsulfonamido)ethoxy)methyl)-6-(trifluoromethyl)benzo[d]thiazol-2-yl)benzamide] | < 5
16 | CN1CCN(Cc2cc(Cl)cc(C(=O)Nc3nc4ccc(C(F)(F)F)cc4s3)c2O)CC1 [Compound 28, 5-chloro-2-hydroxy-3-((4-methylpiperazin-1-yl)methyl)-N-(6-(trifluoromethyl)benzo[d]thiazol-2-yl)benzamide] | < 5
17 | Cc1cc(Cl)cc(C(=O)Nc2nc3c(CN4CCOCC4)cc(C(F)(F)F)cc3s2)c1O [Example 95, 5-chloro-2-hydroxy-3-methyl-N-(4-(morpholinomethyl)-6-(trifluoro-methyl)benzo[d]thiazol-2-yl)benzamide] | < 5
18 | COCCOCCN(C)Cc1cc(Cl)cc(C(=O)Nc2nc3ccc(C(F)(F)F)cc3s2)c1O [Compound 24, 5-chloro-2-hydroxy-3-(((2-(2-methoxyethoxy)ethyl)(methyl)amino)methyl)-N-(6-(trifluoromethyl)benzo[d]thiazol-2-yl)benzamide] | < 5
19 | CCC(=O)NCc1cc(C(F)(F)F)cc2sc(NC(=O)c3cc(Cl)cc(C)c3O)nc12 [Example 90, 5-chloro-2-hydroxy-3-methyl-N-(4-(propionamidomethyl)-6-(trifluoromethyl)benzo[d]thiazol-2-yl)benzamide] | 5 to 10
20 | Cc1cc(Cl)cc(C(=O)Nc2nc3c(COCc4ccc(Cl)cc4)cc(C(F)(F)F)cc3s2)c1O [Compound 82, 5-chloro-N-(4-(((4-chlorobenzyl)oxy)methyl)-6-(trifluoromethyl)benzo[d]thiazol-2-yl)-2-hydroxy-3-methylbenzamide] | < 5
21 | Cc1cc(Cl)cc(C(=O)Nc2nc3c(COCCO)cc(C(F)(F)F)cc3s2)c1O [Compound 88, 5-chloro-2-hydroxy-N-(4-((2-hydroxyethoxy)methyl)-6-(trifluoromethyl)benzo[d]thiazol-2-yl)-3-methylbenzamide] | 5 to 10
22 | CN(C)CCc1cc(Cl)cc(C(=O)Nc2ccc(C(F)(F)F)cc2Cl)c1O [Compound 18, 5-chloro-N-(2-chloro-4-(trifluoromethyl)phenyl)-3-(2-(dimethylamino)ethyl)-2-hydroxybenzamide] | < 5
23 | O=C(Nc1nc2ccc(C(F)(F)F)cc2s1)c1cc(Cl)cc(CN2CCC(F)CC2)c1O [Example 60, 5-chloro-3-((4-fluoropiperidin-1-yl)methyl)-2-hydroxy-N-(6-(trifluoromethyl)benzo[d]thiazol-2-yl)benzamide] | < 5
24 | C[C@@H]1CN(Cc2cc(Cl)cc(C(=O)Nc3nc4c(CNS(C)(=O)=O)cc(C(F)(F)F)cc4s3)c2O)C[C@H](C)O1 [Example 72, 5-chloro-3-((cis-2,6-dimethylmorpholino)methyl)-2-hydroxy-N-(4-(methylsulfonamidomethyl)-6-(trifluoromethyl)benzo[d]thiazol-2-yl)benzamide] | < 5
25 | Cc1cc(Cl)cc(C(=O)Nc2nc3c(CN(C)C)cc(C(F)(F)F)cc3s2)c1O [Example 96, 5-chloro-N-(4-((dimethylamino)methyl)-6-(trifluoromethyl)benzo[d]thiazol-2-yl)-2-hydroxy-3-methylbenzamide] | < 5
26 | COc1ccc(COCc2cc(C(F)(F)F)cc3sc(NC(=O)c4cc(Cl)cc(C)c4O)nc23)cc1 [Compound 89, 5-chloro-2-hydroxy-N-(4-(((4-methoxybenzyl)oxy)methyl)-6-(trifluoromethyl)benzo[d]thiazol-2-yl)-3-methylbenzamide] | < 5
27 | C[C@@H]1CN(Cc2cc(Cl)cc(C(=O)Nc3nc4c(CN5CCN(C)CC5)cc(C(F)(F)F)cc4s3)c2O)C[C@H](C)O1 [Example 79, 5-chloro-3-((cis-2,6-dimethylmorpholino)methyl)-2-hydroxy-N-(4-((4-methylpiperazin-1-yl)methyl)-6-(trifluoromethyl)benzo[d]thiazol-2-yl)benzamide] | < 5
28 | O=C(Nc1ccc(C(F)(F)F)nc1)c1cc(Cl)cc(CN2CCOCC2)c1O [Compound 53, 5-chloro-2-hydroxy-3-(morpholinomethyl)-N-(6-(trifluoromethyl)pyridin-3-yl)benzamide] | < 5
29 | COCCOCc1cc(Cl)cc(C(=O)Nc2nc3ccc(C(F)F)cc3s2)c1O [Compound 42, 5-chloro-N-(6-(difluoromethyl)benzo[d]thiazol-2-yl)-2-hydroxy-3-((2-methoxyethoxy)methyl)benzamide] | 5 to 10

same assay, conditions: Mus musculus, C2C12; minimal concentration leading to OCR increase; read-out: Activity (Cmin-OCR)

Row | SMILES | minimal effective concentration [µM]
30 | O=C(Nc1nc2ccc(C(F)(F)F)cc2s1)c1cc(Cl)cc(CO)c1O [Compound 49 in U.S. Pat. No. 10,227,315, reference compound] | 25
31 | COCOCc1cc(Cl)cc(C(=O)Nc2nc3ccc(C(F)(F)F)cc3s2)c1O [drawing 255] | 2.5

same assay, conditions: in words, compared to similar compounds of the present invention

Row | SMILES | mitochondrial uncoupling activity
32 | O=C(Nc1nc2ccc(C(F)(F)F)cc2s1)c1cc(Cl)cc(CO)c1O [Compound 49 in U.S. Pat. No. 10,227,315, reference compound] | low
